Compound | melting point
Cc1coc2c(CC(C)N)cc(F)cc12.O=C(O)C(=O)O (centres unmarked) | 201 to 202 °C
CC(N)Cc1c(F)ccc2ccoc12.O=C(O)C(=O)O (centres unmarked) | 200 to 202 °C
CC(N)Cc1ccc(F)c2ccoc12.O=C(O)C(=O)O (centres unmarked) | 172 to 174 °C

Now from value to molecule:

melting point | Compound
202 to 205 °C | C[C@H](N)Cc1cc(F)cc2cc(Br)oc12.Cl
216 to 217 °C (dec.) | CC(N)Cc1cc([N+](=O)[O-])cc2ccoc12.Cl (centres unmarked)

— US7045545B1, “Aminoalkylbenzofurans as serotonin (5-HT(2c)) agonists” (Eli Lilly and Company, priority 1999, dated 2006)
